One assay relates to Escherichia coli. Nature of the assay: Antimicrobial activity against Escherichia coli by disk susceptibility test. The assay is classed as functional, organism-based.
The next assay has as its system Bacillus subtilis. Nature of the assay: Antimicrobial activity against Bacillus subtilis by disk susceptibility test. The assay is classed as functional, organism-based.
Another assay concerns Pseudomonas aeruginosa. Put plainly: Antimicrobial activity against Pseudomonas aeruginosa by disk susceptibility test. The assay is classed as functional, organism-based.
The test system of the next assay is Candida albicans. Put plainly: Antimicrobial activity against Candida albicans by disk susceptibility test. Format: functional, organism-based.
Assay [1] relates to Trichophyton mentagrophytes. Put plainly: Antimicrobial activity against Trichophyton mentagrophytes by disk susceptibility test. Format: functional, organism-based.
A further assay concerns Amorphotheca resinae. Put plainly: Antimicrobial activity against Cladosporium resinae by disk susceptibility test. Format: functional, organism-based.
The next assay deals with P388. Nature of the assay: Cytotoxicity against mouse P388 cells after 1 to 11 days by MTT assay. The assay is classed as functional. To be noted: read-out: ID50 (the source's name). For orientation: Tetrazolium dyes change colour on reduction, which living cells bring about.

Values after ≈ are worked out from the molar mass of the structure shown. Active and inactive are the calls of the source. The calls are words filed in the database; no cut-off is given here.

Consider three compounds from ChEMBL document CHEMBL1150138, “The isolation of two new chromone derivatives from the New Zealand fungus Tolypocladium extinguens” (2002).

As for `COc1cc2oc(C)cc(=O)c2c(O)c1CO`, the result (in the assay on Escherichia coli; in the assay with Bacillus subtilis; with Pseudomonas aeruginosa; with Candida albicans; in assay [1]; in the assay with Amorphotheca resinae) was inactive.

On to `COCc1c(OC)cc2oc(CO)cc(=O)c2c1O`, for which the result (in the assay with Escherichia coli; in the assay on Bacillus subtilis; with Pseudomonas aeruginosa; in the assay with Candida albicans; in assay [1]; in the assay on Amorphotheca resinae) was inactive.

With `COCc1c(OC)cc2oc(C)cc(=O)c2c1O`, the IC50 in the assay on P388 came to 6 µg/mL (≈ 24 µM). For the same compound, the result (in the assay with Escherichia coli; in the assay on Bacillus subtilis; with Pseudomonas aeruginosa; in the assay on Candida albicans; in assay [1]; with Amorphotheca resinae) was inactive.
